Laboratory results as given in patent US20130303788A1, “METHOD OF PRODUCING BIPHENOLIC COMPOUND, NOVEL BIPHENYL COMPOUND AND SYNTHESIS METHOD THEREOF, AND PHARMACEUTICAL COMPOSITION FOR TREATING PARKINSON'S DISEASE” (Tzu Chi University, priority 2012, published 2013).

Key:
[1] = test system: SH-SY5Y human neuroblastoma cells; assay: Effects on oxidative stress (TBHP or CHP), MTT assay; format: cell-based; conditions: for prevention of cell death (relative cell viability) after exposure to CHP / prevention of cell death (relative cell viability) after exposure to TBHP: 10 μM for 30 minutes, vs pathological control, FIG. 9; for prevention of cell death (relative cell viability) after exposure to CHP: then CHP 300 μM for 3 hours; for prevention of cell death (relative cell viability) after exposure to TBHP: then TBHP 300 μM for 3 hours
Experimental: (§1) 3-(4,5-Dimethylthiazol-2-yl)-2,5-diphenyltetrazolium bromide (MTT) assay was conducted generally as follows. A MTT solution was added to culture of the cells in the respective well so that a MTT concentration of 0.5 mg/mL was reached, followed by cultivation for 4 hours. The liquid in the respective well was removed, and dimethylsulfoxide (DMSO) was added into the respective well to dissolve formazan dye. Absorbance of the mixture in the respective well at 570 nm (OD570) was measured using an OPTImax microplate reader (Molecular Devices).
The SH-SY5Y human neuroblastoma cells were respectively treated with products 1, 2, 3, 4, 5, 7, and 3,3′-diallyl-biphenyl-4,4′-diol (compound 55) (10 μM) for 30 minutes. 3,3′-diallyl-biphenyl-4,4′-diol (compound 55) was prepared from commercially available 4,4′-biphenol (compound 54) generally according to the method as described in Ablard, F. et al., Bioorg. Med. Chem. Lett. 2007, 17, 4428. Subsequently, the SH-SY5Y human neuroblastoma cells were exposed to cumene hydroperoxide (CHP) or tert-butyl hydroperoxide (TBHP) (300 μM, Riedel-de Haen) for 3 hours after the treatment with the respective biphenolic compound of formula (I).
(§2) Cell viability was evaluated as follows. The SH-SY5Y human neuroblastoma cells were subjected to the MTT assay as described in section 1 of General Procedures. The relative cell viability (%) was calculated by substituting the absorbance into the following formula:
(§3) where D=relative cell viability • E=OD570 of the pathological control, or the SH-SY5Y human neuroblastoma cells treated with the respective biphenolic compound of formula (I) • F=OD570 of the normal control The obtained data were subjected to the statistical analysis as described in section 5 of General Procedures.

inflammatory pain = conditions: Lin Yi-Ruu et al. (2007); cited from earlier work
[2] = test system: excitotoxicity induced by excitatory amino acids; conditions: Lin Yi-Ruu et al. (2006); cited from earlier work
[3] = test system: TH (Tyrosine Hydroxylase); assay: TH expression level (TH immunohistochemistry) in 6-OHDA mouse model of PD; format: in vivo, NMRI mice; conditions: i.p. 14 consecutive days starting Day 7, Day 21 after 6-OHDA, 16
Experimental: The respective NMRI mouse was deeply anaesthetized with thiopental (50 mg/kg, intraperitoneally). The respective NMRI mouse was perfused transcardially with a heparin solution (0.05% heparin in 0.1 M PBS), and was subsequently perfused with 100 mL of ice-cold fixative (4% paraformaldehyde in 0.1 M PBS). The brain of the respective NMRI mouse was removed and was postfixed in the same ice-cold fixative for 12 hours, followed by dehydration in 30% sucrose in 0.1 M PBS. The brain was frozen and was subjected to tissue slicing. Serial coronal sections (a thickness of 20 μm) were cut on a freezing microtome and were placed in PBS. The sections were later processed for free-floating TH or iNOS immunohistochemistry.
The sections were rinsed three times with PBS (30 minutes for each time), were treated with 3% H2O2/10% methanol in PBS for 30 minutes for quenching the endogenous peroxidase activity, and were rinsed three times with PBS. After preincubation with 0.5% normal goat serum (NGS)/0.2% Triton in PBS, the sections were incubated with a primary antibody (anti-TH antibody or anti-iNOS antibody, 1:5000, Novus Biologicals, Inc., Littleton, Colo., USA) in 0.5% NGS/PBS at 4° C. for 16-18 hours. After being rinsed three times with PBS, the sections were incubated with a biotinylated goat anti-rabbit IgG (1:200) in PBS for 1 hour. Subsequently, the sections were rinsed three times with PBS and were stained with 0.05% diaminobenzidine/0.03% H2O2 in PBS for 5 minutes. The respective section was placed on a gelatin-coated slide, dehydrated through ascending concentrations of alcohol, and covered with a slipcover for observation under a light microscope.
The obtained data were subjected to the statistical analysis as described in section 5 of General Procedures. TH expression level in the striatum was determined according to the method as described in section 4 of General Procedures.
TH expression level in the striatum and the substantia nigra (SN), and iNOS expression level in the striatum were determined according to the method as described in section 4 of General Procedures on Day 21 after the injection of 6-OHDA or the vehicle.
In addition, the optical density regarding the lesioned and unlesioned sites in the striatum and SN of the NMRI mice (e.g., the sham operated control, the pathological control, and the NMRI mice treated with product 1) was determined from the obtained photomicrographs illustrating TH expression level via ImageJ software (National Institutes of Health). The relative optical density was calculated using the following formula:
where J=relative optical density • K=optical density of the lesioned site • L=optical density of the unlesioned site

[4] = test system: mouse model of PD (6-OHDA unilateral striatal lesion); assay: Apomorphine-induced rotation test in 6-OHDA mouse model of PD; format: in vivo, NMRI mice
Experimental: The respective NMRI mouse was anesthetized with ketamine ([…], intraperitoneally). Subsequently, the respective NMRI mouse was placed into a stereotactic frame with nose and ear bars specially designed for mice. 6-hydroxydopamine (6-OHDA) was injected with saline containing 0.02% ascorbic acid (as a vehicle) into the right striatum of the respective NMRI mouse so that unilateral striatal lesion was induced (i.e., damage to dopaminergic neurons in the unilateral striatum was induced). The injection was conducted at a rate of 1 μL/minute using a Hamilton syringe at the following coordinates: AP: −0.9 mm; ML: −1.9 mm; DV: −2.2 mm with respect to bregma, and a final dose of 15 μg was administered. The needle was left standing for 5 minutes after the injection was finished, and was slowly withdrawn.
The respective NMRI mouse was allowed to habituate to the ambient environment for 10 minutes before the apomorphine-induced rotation test was performed. Apomorphine was then injected intraperitoneally into the respective NMRI mouse at a dose of 0.5 mg/kg. The respective NMRI mouse was placed in a glass bowl with a diameter of 20 cm and was attached to an automatic rotometer (TSE, Bad Homburg, Germany) via a specially designed harness. Each circular movement exceeding 30° was recorded. The contralateral movements (toward the nonlesioned side) and ipsilateral movements (toward the lesioned side) of the NMRI mice were counted during a period of 60 minutes. The net rotation was calculated according to the following formula:
where A=net rotation • B=the total number of ipsilateral movements during the period of 60 minutes • C=the total number of contralateral movements during the period of 60 minutes 4. Determination of TH (Tyrosine Hydroxylase) Expression Level and iNOS (Inducible Nitric Oxide Synthase) Expression Level: […]
6-OHDA was injected into NMRI mice according to the method as described in section 2 of General procedures. Product 1 or product 2 was administered intraperitoneally to the respective NMRI mouse at a dose of 5 mg/kg, 1 mg/kg, 0.5 mg/kg, 0.1 mg/kg, or 0.05 mg/kg for 14 consecutive days, starting on Day 7 after the 6-OHDA injection. NMRI mice into which a vehicle (saline containing 0.02% ascorbic acid) was injected (generally according to the method as described in section 2 of General Procedures, except that 6-OHDA was not injected), and which were not treated with product 1 or product 2 after the injection of the vehicle, served as a sham operated control. NMRI mice into which 6-OHDA was injected and which were not treated with product 1 or product 2 after the 6-OHDA injection served as a pathological control. The rotational behavior of the NMRI mice was evaluated using the apomorphine-induced rotation test as described in section 3 of General Procedures on Days 7, 14, and 21 after the 6-OHDA injection.

[5] = test system: SH-SY5Y human neuroblastoma cells; assay: Effects on MPP+ neurotoxicity, MTT assay; format: cell-based; conditions: 10 μM or 30 μM; MPP+ 1 mM for 24 hours; FIG. 10
Experimental: as §1
SH-SY5Y human neuroblastoma cells were exposed to neurotoxic 1-methyl-4-phenylpyridinium (MPP^+) (1 mM) for 24 hours, while the same were treated with the respective one of products 1, 2, 3, 4, 5, 7, and 3,3′-diallyl-biphenyl-4,4′-diol (compound 55) (10 μM or 30 μM).
as §2
as §3, with “G=relative” for “D=relative”, “H=OD570” for “E=OD570”, “I=OD570” for “F=OD570”

SMILES	prevention of cell death (relative cell viability) after exposure to CHP [1]	prevention of cell death (relative cell viability) after exposure to TBHP [1]	concentration dependence of alleviation of MPP+ cytotoxicity [5]	other results
C=CCc1cc(-c2ccc(O)c(CC=C)c2)ccc1O [compound 55, 3,3′-diallyl-biphenyl-4,4′-diol]	significantly prevented cell death	significantly prevented cell death	–	–
C=CCc1ccc(O)c(-c2cc(CC=C)ccc2O)c1 [magnolol, reference compound]	–	–	–	alleviation of inflammatory pain in an animal model (inflammatory pain): effective in alleviating inflammatory pain; neuroprotective effects via anti-oxidative abilities and antagonist actions against excitotoxicity [2]: able to exert neuroprotective effects
C=CCc1cc(-c2cc(CCC)ccc2O)ccc1O [product 2, 3′-Allyl-5-propyl-biphenyl-2,4′-diol]	significantly prevented cell death	significantly prevented cell death	alleviated the cytotoxicity of MPP^+ in a concentration-dependent manner	rank among the tested biphenolic compounds in preventing cell death, CHP ([1]; 10 μM, CHP 300 μM 3 hours): the most effective in preventing cell death among them; rank among the tested biphenolic compounds in preventing cell death, TBHP ([1]; 10 μM, TBHP 300 μM 3 hours): the most effective in preventing cell death among them; loss of TH-ir fibers in the striatum, subchronic post-treatment ([3]; FIGS. 14, 15(A)): significantly alleviated the loss of TH-ir fibers; loss of TH-ir fibers in the substantia nigra (SN), subchronic post-treatment ([3]; FIGS. 14, 15(B)): significantly alleviated the loss of TH-ir fibers; unilateral rotations (apomorphine-induced), subchronic post-treatment, 0.1 mg/kg ([4]; 0.1 mg/kg i.p., 14 consecutive days starting Day 7 after 6-OHDA, FIG. 13): significantly inhibited unilateral rotations; unilateral rotations (apomorphine-induced), subchronic post-treatment, 0.5 mg/kg ([4]; 0.5 mg/kg i.p., 14 consecutive days starting Day 7 after 6-OHDA, FIG. 13): significantly inhibited unilateral rotations; unilateral rotations (apomorphine-induced), subchronic post-treatment, 1 mg/kg ([4]; 1 mg/kg i.p., 14 consecutive days starting Day 7 after 6-OHDA, FIG. 13): significantly inhibited unilateral rotations; restoring activity against neurotoxin-induced motor dysfunction compared with product 1 ([4]; subchronic post-treatment, 14 days starting Day 7 after 6-OHDA): more potent restoring activity
CCCc1ccc(O)c(-c2ccc(O)c(CCC)c2)c1 [product 3, 5,3′-Dipropyl-biphenyl-2,4′-diol]	significantly prevented cell death	significantly prevented cell death	alleviated the cytotoxicity of MPP^+ in a concentration-dependent manner	–
C=CCc1ccc(O)c(-c2ccc(O)c(CCC)c2)c1 [product 4, 5-Allyl-3′-propyl-biphenyl-2,4′-diol]	significantly prevented cell death	significantly prevented cell death	alleviated the cytotoxicity of MPP^+ in a concentration-dependent manner	–
C#CCc1ccc(O)c(-c2ccc(O)c(CC=C)c2)c1 [product 5, 3′-Allyl-5-prop-2-ynyl-biphenyl-2,4′-diol]	significantly prevented cell death	significantly prevented cell death	alleviated the cytotoxicity of MPP^+ in a concentration-dependent manner	–
C=CCc1cc(-c2cccc(O)c2CC=C)ccc1O [product 7, 2,3′-Diallyl-biphenyl-3,4′-diol]	significantly prevented cell death	significantly prevented cell death	alleviated the cytotoxicity of MPP^+ in a concentration-dependent manner	–
